Experiments:
[1] = Plasma pharmacokinetics of DMA; type: in vivo, mouse
Procedure: Oral and intravenous pharmacokinetics of DMA was performed at a dose of 100 and 50 mg/kg bw, respectively. Control mice were administered equal volume of sterile water. Blood samples were collected by cardiac puncture at 1, 2, 4, 6, 16, and 24 h after oral and intravenous administration of DMA. Plasma was spiked with Hoechst 33342 as internal standard. Plasma proteins were precipitated by adding 180 μl acetonitrile and the samples were centrifuged at 14000 rpm for 10 min at 4° C. Clear supernatant […] was taken and […] distilled water was added to get a ˜35% acetonitrile solution. The samples were injected onto HPLC-MS/MS system.
A standard DMA calibration from 1-1000 ng/ml with internal standard (20 ng/ml) was quantified. Sample analysis was performed on positive ionization mode LC-MS/MS with multiple reactions monitoring (MRM, m/z Q1/Q3) of DMA (m/z 235.1/412.0, retention time (RT) 5.3 min) and internal standard (m/z 227.1/396.0, RT 6.5 min) (Agilent 6410 series). A gradient method was employed to analyze the plasma samples using mobile phase A (0.1% formic acid in water) and mobile phase B (methanol). The B % was set as 30 (0 min), 90 (10-14 min), 30 (14-24 min) with flow rate of 0.3 ml/min. An injection volume of 10 μl was used for analysis.
Peak tissue concentration (Cmax) of DMA and time to reach the Cmax (tmax) were read directly from the raw data by visual examination of mean tissue concentration-time profile. The tissue concentration-time data following oral dose were subjected to one-, two- and three-compartmental models using WinNonlin program (version 6.3; Certara Inc, Missouri, USA) to calculate the pharmacokinetic parameters. The pharmacokinetic models were compared according to maximal correlation between observed and predicted concentration, minimal sum of squared residuals, Akaike Information Criterion (AIC) and Schwarz Bayesian Criterion (SBC). However, the tissue concentration-time data following intravenous administration were subjected to non-compartmental approach.

[2] = Cytotoxicity by MTT assay; type: cell-based, human; conditions: human
Procedure: (§1) Exponentially growing HEK293, MRC5 and A549 cells were plated at cell densities 3000 cells per well in 96-well tissue culture plates. […] Cytotoxicity was measured by MTT assay according to the manufacturer's instructions (Promega, Madison, Wis., USA).

A549 cells = assay: Cytotoxicity by MTT assay; type: cell-based, human
Procedure: as §1

MRC5 cells = assay: Cytotoxicity by MTT assay; type: cell-based, human
Procedure: as §1

HEK293 cells [3] = assay: Cytotoxicity by MTT assay; type: cell-based, human
Procedure: as §1

[4] = in vivo (earlier work, Nimesh et al., 2015); cited from earlier work
[5] = test system: Balb/c mice intestine tissue; assay: Gene expression at mRNA level by RT-PCR; type: in vivo, mouse
Procedure: The cDNA generated from total RNA was amplified using 1 μl of the reaction products in 10 μl with respective primers for 45 cycles following standard RT-PCR cycle by SYBR green dye. Transcript levels were calculated according to the 2^−ΔΔCt method, normalized to the expression of GAPDH, and expressed as fold change compared with control.

HEK293 cells [6] = assay: Clonogenicity assay with Akt depleted cells; type: cell-based, human; conditions: 5Gy
Procedure: HEK 293 cells were transfected with Akt siRNA and control-siRNA (Santa Cruz Biotechnology Inc.) according to the manufacturer's instructions. Semi-quantitative RT-PCR was performed with primers specific for Akt and ACTB in control siRNA and Akt siRNA treated HEK cells for analysing knockdown of Akt […] gene expression.
Exponentially growing HEK cells post siRNA (siRNA-Akt and control siRNA transfections) were treated with 50 μM DMA for 1 h and irradiated with 0, 1, 2, 5 and 8 Gy of radiation dose at RT. Cells were seeded into 60 mm dishes in triplicate, at various densities and cells were stained with crystal violet to count colonies. Same experiment was done with control siRNA-transfected HEK cells. Percentage radioprotection was calculated by following formula % of Protection in radiation treated cells=(Survival fraction in siRNA+DMA treated cells/Survival fraction in only siRNA treated cells/)×100.

[7] = test system: Balb/c mice spleen and small intestine; assay: BrdU and IL6 immunohistochemistry; type: in vivo, mouse
Procedure: Spleen cell survival was determined 3 days after irradiation by 5-bromo-2′-deoxyuridine (BrdU, i.p., 100 mg/kg) to each mouse 2 h before euthanasia. Similarly small intestine was checked for IL6 expression. BrdU and IL6 immunohistochemistry (IHC) were performed as per standard protocol against BrdU and IL6. 3,3,-diaminobenzidine (DAB) was used to detect antigen-antibody binding. Counterstaining was done with hematoxylin, and after dehydration, slides were mounted with glycerogelatin.

[8] = Balb/c, mouse, plasma, 100 mg/kg oral
[9] = DMA pre-treated to radiation group
[10] = DMA+Radiation vs irradiated mice

COc1ccc(-c2nc3cc(-c4nc5cc(N6CCN(C)CC6)ccc5[nH]4)ccc3[nH]2)cc1OC [DMA, 5-(4-methylpiperazin-1-yl)-2-[2′-(3,4-dimethoxyphenyl)-5′-benzimidazolyl]benzimidazole]
Maximum concentration observed in plasma ([1]; 50 mg/kg i.v.): 4291.95 ng/mL
Volume of distribution (Vss) ([1]; 50 mg/kg i.v.): larger than the total blood volume of mouse
Plasma peak concentration ([1]; 100 mg/kg oral): 445.8 ng/mL
Time to decline to basal level in plasma ([1]; 100 mg/kg oral): 16 h
half-life ([1]; Balb/c, mouse, plasma, iv, 50 mg/kg i.v.): 2.65 h
Tmax [1, 8]: 1.5 h
half-life [1, 8]: 3.5 h
AUC ([1]; Balb/c, mouse, plasma, 100 mg/kg oral, read-out: Area under curve (AUC), plasma): 669 ng·h/mL
clearance ([1]; Balb/c, plasma, intravenous, 50 mg/kg, mouse, hepatic blood flow 5.4 L/h/kg, read-out: Systemic clearance (converted)): 195 mL/min/kg
Clearance from plasma ([1]; oral and i.v. routes): rapid clearance
IC50 ([2]; A549 cells, A549, 1-100 μM, up to 72 h): > 100 µM
IC50 at 24 h ([2]; MRC5 cells, MRC-5 cells, 24 h): 92.5 µM
IC50 at short term incubation (A549 cells; A549, 50 μM DMA, 2 h): no observable IC50
IC50 (cytotoxicity) (A549 cells; A549, 1-100 μM, up to 72 h): could not be achieved
IC50 at short term treatment (A549 cells; A549, DMA at 509 μM for 2 h): no observable IC50
IC50 at short term incubation (MRC5 cells; MRC5, 50 μM DMA, 2 h): no observable IC50
IC50 at short term treatment (MRC5 cells; MRC5, DMA at 509 μM for 2 h): no observable IC50
Concentration at which DMA was cytotoxic (HEK293 cells [3]; HEK293): 50 µM
IC50 at short term incubation (HEK293 cells [3]; HEK293, 50 μM DMA, 2 h): no observable IC50
IC50 at short term treatment (HEK293 cells [3]; HEK293, DMA for 2 h): no observable IC50
Maximum tolerated dose (MTD), no toxicity in vivo [4]: 2000 mg/kg
Akt mRNA expression ([5]; DMA 50 mg/kg i.v. + 8Gy TBI vs control): higher expression
Bax, Bcl-2 and p21 mRNA expression level ([5]; DMA by itself): did not increase
Gadd45α mRNA expression ([5]; DMA by itself): significantly increased
Bax gene expression [5, 9]: no significant downregulation
Bcl-2 mRNA level [5, 9]: insignificant increase
p21 mRNA expression ([5]; DMA pretreatment 50 mg/kg i.v. to radiation vs radiation): significantly downregulated
Gadd45α mRNA expression ([5]; DMA pretreatment to radiation): augmented
% radioprotection (clonogenicity) (HEK293 cells [6]; Akt siRNA treated cells): 7.5%
% radioprotection (clonogenicity) (HEK293 cells [6]; control siRNA treated cells): 40.6%
IL6 level in small intestine (IHC) ([7]; DMA only treated mice): almost equal to control mice
BrdU-positive cells (IHC) [7, 10]: more BrdU-positive cells
IL6 level in small intestine (IHC) [7, 10]: higher level of IL6

From patent publication US10016515B2, “DMA, a bis-benzimidazole, confers radioprotection to the intestine via Akt/NFκB dual pathway activation” (Jawaharlal Nehru University, priority 2016, dated 2018)
